Data set [1] can be described thus: singlet oxygen efficiency test, reference rose bengal. It counts as physicochemical.
A short description of data set [2]: absorption spectrum (maximum absorption wavelength, molar extinction coefficient). It counts as physicochemical.

Molecules are shown by their SMILES.

As to `COCCOCCOCCOCCOCCOCCOC(=O)CCCNc1c2c3c4c(c(OC)c(=O)c5c(NCCCC(=O)OCCOCCOCCOCCOCCOCCOC)cc(OC)c(c6c(OC)cc(O)c(c1=O)c63)c54)C(C(C)=O)C(C)=C2` (stereo not drawn) [HB-8d-PEG6], the singlet oxygen yield in data set [1] is on record as 32%. In data set [2], the maximum absorption wavelength was found to be 620 nm and the molar extinction coefficient is 31,500 M^−1cm^−1.
In data set [1], `COc1c2c3c4c(c(NCCCC(=O)O)c(=O)c5c(O)cc(OC)c(c6c(OC)cc(NCCCC(=O)O)c(c1=O)c63)c54)C=C(C)C2C(C)=O` (stereo not drawn) [HB-8d] yielded a singlet oxygen yield of 26%. Further, in data set [2], the maximum absorption wavelength is 624 nm and the molar extinction coefficient is recorded as 29,000 M^−1cm^−1.
`COCCOCCNC(=O)CCNc1c(NCCC(=O)NCCOCCOC)c2c(=O)cc(OC)c3c4c(OC)cc(=O)c5c(O)c(OC)c6c(c(c1C=C(C)C6C(C)=O)c23)c54` (stereo not drawn) [HB-10a-NH-PEG1]: the singlet oxygen yield in data set [1] amounted to 30%. In data set [2], the maximum absorption wavelength is 621 nm and the molar extinction coefficient is given as 31,500 M^−1cm^−1.
`COc1c(O)c2c(=O)cc(OC)c3c4c(OC)cc(=O)c5c(NCCC(=O)O)c(NCCC(=O)O)c6c(c(c1C(C(C)=O)C(C)=C6)c23)c54` (stereo not drawn) [HB-10a] had a singlet oxygen yield in data set [1] of 32%. In addition, in data set [2], the maximum absorption wavelength came out at 620 nm and the molar extinction coefficient is listed as 31,000 M^−1cm^−1.
In the same order, the values of `COc1c(NCCC(=O)O)c2c(=O)cc(OC)c3c4c(OC)cc(=O)c5c(O)c(NCCC(=O)O)c6c(c(c1C(C(C)=O)C(C)=C6)c23)c54` (stereo not drawn) [HB-10b] are 34%, 615 nm and 31,500 M^−1cm^−1.
In data set [1], `COc1c2c3c4c(c(NCCC(=O)O)c(=O)c5c(NCCC(=O)O)cc(OC)c(c6c(OC)cc(O)c(c1=O)c63)c54)C=C(C)C2C(C)=O` (stereo not drawn) [HB-10c] had a singlet oxygen yield of 38%. In addition, in data set [2], the maximum absorption wavelength was determined as 622 nm and the molar extinction coefficient is given as 33,000 M^−1cm^−1.
Compound `COc1c2c3c4c(c(NCCC(=O)O)c(=O)c5c(O)cc(OC)c(c6c(OC)cc(NCCC(=O)O)c(c1=O)c63)c54)C=C(C)C2C(C)=O` (stereo not drawn) [HB-10d] came in with a singlet oxygen yield in data set [1] of 32%. In addition, in data set [2], the maximum absorption wavelength came out at 621 nm and the molar extinction coefficient is reported as 32,500 M^−1cm^−1.
`COc1c(O)c2c(=O)cc(OC)c3c4c(OC)cc(=O)c5c(NCCS(=O)(=O)O)c(NCCS(=O)(=O)O)c6c(c(c1C(C(C)=O)C(C)=C6)c23)c54` (stereo not drawn) [HB-11a-C2-SO3H] registered a singlet oxygen yield in data set [1] of 32%. In data set [2], the maximum absorption wavelength is given as 620 nm and the molar extinction coefficient was 30,000 M^−1cm^−1.
Consider `COc1c(NCCCCS(=O)(=O)O)c2c(=O)cc(OC)c3c4c(OC)cc(=O)c5c(O)c(NCCCCS(=O)(=O)O)c6c(c(c1C(C(C)=O)C(C)=C6)c23)c54` (stereo not drawn) [HB-11b-C4-SO3H], for which, in data set [1], the singlet oxygen yield came to 34%. Besides, in data set [2], the maximum absorption wavelength is 620 nm and the molar extinction coefficient is recorded as 30,500 M^−1cm^−1.
The compound `COc1c2c3c4c(c(NCCCCCCS(=O)(=O)O)c(=O)c5c(NCCCCCCS(=O)(=O)O)cc(OC)c(c6c(OC)cc(O)c(c1=O)c63)c54)C=C(C)C2C(C)=O` (stereo not drawn) [HB-11c-C6-SO3H] had a singlet oxygen yield in data set [1] of 38%. In data set [2], the maximum absorption wavelength is 626 nm and the molar extinction coefficient is recorded as 31,500 M^−1cm^−1.
Turning to `COc1c2c3c4c(c(NCCCCS(=O)(=O)O)c(=O)c5c(O)cc(OC)c(c6c(OC)cc(NCCCCS(=O)(=O)O)c(c1=O)c63)c54)C=C(C)C2C(C)=O` (stereo not drawn) [HB-11d-C4-SO3H], the singlet oxygen yield in data set [1] is reported as 32%. In addition, in data set [2], the maximum absorption wavelength amounted to 626 nm and the molar extinction coefficient is 30,500 M^−1cm^−1.
As to `COc1c(O)c2c(=O)cc(OC)c3c4c(OC)cc(=O)c5c(NCCS(=O)(=O)OC)c(NCCS(=O)(=O)OC)c6c(c(c1C(C(C)=O)C(C)=C6)c23)c54` (stereo not drawn) [HB-12a], the singlet oxygen yield in data set [1] worked out at 20%. In data set [2], the maximum absorption wavelength was 621 nm and the molar extinction coefficient is recorded as 23,500 M^−1cm^−1.
In the same order, the values of `COc1c(NCCS(=O)(=O)OC)c2c(=O)cc(OC)c3c4c(OC)cc(=O)c5c(O)c(NCCS(=O)(=O)OC)c6c(c(c1C(C(C)=O)C(C)=C6)c23)c54` (stereo not drawn) [HB-12b] are 22%, 621 nm and 22,500 M^−1cm^−1.
Turning to `COc1c2c3c4c(c(NCCS(=O)(=O)OC)c(=O)c5c(NCCS(=O)(=O)OC)cc(OC)c(c6c(OC)cc(O)c(c1=O)c63)c54)C=C(C)C2C(C)=O` (stereo not drawn) [HB-12c], the singlet oxygen yield in data set [1] worked out at 22%. In data set [2], the maximum absorption wavelength was found to be 622 nm and the molar extinction coefficient is given as 23,500 M^−1cm^−1.
`COc1c2c3c4c(c(NCCS(=O)(=O)OC)c(=O)c5c(O)cc(OC)c(c6c(OC)cc(NCCS(=O)(=O)OC)c(c1=O)c63)c54)C=C(C)C2C(C)=O` (stereo not drawn) [HB-12d]: in data set [1], the singlet oxygen yield was 21%. Besides, in data set [2], the maximum absorption wavelength was determined as 624 nm and the molar extinction coefficient is recorded as 21,500 M^−1cm^−1.
`COC(=O)C1CCC(CNc2c(NCC3CCC(C(=O)OC)CC3)c3c(=O)cc(OC)c4c5c(OC)cc(=O)c6c(O)c(OC)c7c(c(c2C=C(C)C7C(C)=O)c34)c65)CC1` (stereo not drawn) [HB-13a-AcE] displayed a singlet oxygen yield in data set [1] of 25%. Besides, in data set [2], the maximum absorption wavelength is on record as 625 nm and the molar extinction coefficient was 27,000 M^−1cm^−1.
Compound `COCCOCCNC(=O)C1CCC(CNc2c(NCC3CCC(C(=O)NCCOCCOC)CC3)c3c(=O)cc(OC)c4c5c(OC)cc(=O)c6c(O)c(OC)c7c(c(c2C=C(C)C7C(C)=O)c34)c65)CC1` (stereo not drawn) [HB-13a-NH-PEG1] registered a singlet oxygen yield in data set [1] of 32%. Moreover, in data set [2], the maximum absorption wavelength turned out to be 624 nm and the molar extinction coefficient was 31,000 M^−1cm^−1.
Consider `COc1c(O)c2c(=O)cc(OC)c3c4c(OC)cc(=O)c5c(NCC6CCC(C(=O)O)CC6)c(NCC6CCC(C(=O)O)CC6)c6c(c(c1C(C(C)=O)C(C)=C6)c23)c54` (stereo not drawn) [HB-13a], for which the singlet oxygen yield in data set [1] was 28%. Besides, in data set [2], the maximum absorption wavelength is recorded as 621 nm and the molar extinction coefficient was 28,500 M^−1cm^−1.
In the same order, the values of `COC(=O)C1CCC(CNc2c(O)c3c(=O)cc(OC)c4c5c(OC)cc(=O)c6c(NCC7CCC(C(=O)OC)CC7)c(OC)c7c(c(c2C=C(C)C7C(C)=O)c34)c65)CC1` (stereo not drawn) [HB-13b-AcE] are 24%, 623 nm and 27,000 M^−1cm^−1.
As for `COCCOCCOCCOCCOCCNC(=O)C1CCC(CNc2c(O)c3c(=O)cc(OC)c4c5c(OC)cc(=O)c6c(NCC7CCC(C(=O)NCCOCCOCCOCCOCCOC)CC7)c(OC)c7c(c(c2C=C(C)C7C(C)=O)c34)c65)CC1` (stereo not drawn) [HB-13b-NH-PEG4], the singlet oxygen yield in data set [1] is given as 34%. Also, in data set [2], the maximum absorption wavelength is recorded as 622 nm and the molar extinction coefficient is reported as 31,000 M^−1cm^−1.
`COc1c(NCC2CCC(C(=O)O)CC2)c2c(=O)cc(OC)c3c4c(OC)cc(=O)c5c(O)c(NCC6CCC(C(=O)O)CC6)c6c(c(c1C(C(C)=O)C(C)=C6)c23)c54` (stereo not drawn) [HB-13b] registered a singlet oxygen yield in data set [1] of 26%. Further, in data set [2], the maximum absorption wavelength turned out to be 621 nm and the molar extinction coefficient is 28,000 M^−1cm^−1.

The values above are taken from patent US11439707B2, “Hypocrellin derivative substituted both in a peri-position and in 2-position by amino, preparation method, and application thereof” (priority 2017, dated 2022).
